# Measurements: ChEMBL document CHEMBL4396963, “An exploration of solvent-front region high affinity moiety leading to novel potent ALK & ROS1 dual inhibitors with mutant-combating effects” (Bioorg Med Chem, 2019)
# pIC50: −log10 of the molar value.
# How the values were obtained:
# [1] = tested on: KARPAS-299; test: Antiproliferative activity against human KARPAS299 cells assessed as reduction in cell viability incubated for 72 hrs by MTT assay; assay type: functional, cell-based; details: KARPAS-299, 72 h
# [2] = tested on: A549; test: Antiproliferative activity against human A549 cells harbouring […] mutant assessed as reduction in cell viability incubated for 72 hrs by MTT assay; assay type: functional, cell-based; details: A549, 72 h
# [3] = tested on: A549; test: cells; details: Homo sapiens, A549, 72 h
# [4] = tested on: HCC78; test: Antiproliferative activity against human HCC78 cells assessed as reduction in cell viability incubated for 72 hrs by MTT assay; assay type: functional, cell-based; details: HCC78, 72 h
# [5] = tested on: HT-29; test: cells; details: Homo sapiens, HT-29, 72 h
# Description: Antiproliferative activity against human HT-29 cells assessed as reduction in cell viability incubated for 72 hrs by MTT assay
# [6] = tested on: NCI-H2228; test: Antiproliferative activity against human NCI-H2228 cells assessed as reduction in cell viability incubated for 72 hrs by MTT assay; assay type: functional, cell-based; details: NCI-H2228, 72 h
SMILES,pIC50 [1],pIC50 [2],pIC50 [3],pIC50 [4],pIC50 [5],pIC50 [6]
COc1cc(NC(=O)NC2CCCC2)ccc1Nc1ncc(Cl)c(Nc2ccccc2NC(C)=O)n1,6.08,6.13,< 5.00,6.21,5.18,6.33
COc1cc(NC(=O)C2CCN(C(=O)OC(C)(C)C)CC2)ccc1Nc1ncc(Cl)c(Nc2ccccc2NC(C)=O)n1,6.29,5.86,5.27,6.21,< 5.00,5.76
COc1cc(NC(=O)NCCCN2CCCC2)ccc1Nc1ncc(Cl)c(Nc2ccccc2NC(C)=O)n1,6.54,5.99,5.53,6.96,< 5.00,6.14
COc1cc(N2CCCCC2=O)ccc1Nc1ncc(Cl)c(Nc2ccccc2NC(C)=O)n1,6.51,5.97,< 5.00,6.18,< 5.00,6.28
COc1cc(NC(=O)N2CCN(C(=O)OC(C)(C)C)CC2)ccc1Nc1ncc(Cl)c(Nc2ccccc2NC(C)=O)n1,5.95,5.93,5.64,6.64,5.51,6.03
COc1cc(N2CCC2=O)ccc1Nc1ncc(Cl)c(Nc2ccccc2NC(C)=O)n1,6.18,6.19,5.67,6.64,5.25,6.13
CCOC(=O)C1CCN(C(=O)Nc2ccc(Nc3ncc(Cl)c(Nc4ccccc4NC(C)=O)n3)c(OC)c2)CC1,6.35,6.03,5.76,6.06,< 5.00,5.92
COc1cc(NC(=O)NC2CCCCC2)ccc1Nc1ncc(Cl)c(Nc2ccccc2NC(C)=O)n1,6.14,5.81,< 5.00,6.29,< 5.00,6.34
COc1cc(NC(=O)N2CCSCC2)ccc1Nc1ncc(Cl)c(Nc2ccccc2NC(C)=O)n1,6.68,5.63,< 5.00,6.77,< 5.00,6.24
COc1cc(NC(=O)N2CCN(C)CC2)ccc1Nc1ncc(Cl)c(Nc2ccccc2NC(C)=O)n1,7.31,6.36,5.34,6.41,< 5.00,6.77
COC(=O)C1=C(Nc2ccc(Nc3ncc(Cl)c(Nc4ccccc4NC(C)=O)n3)c(OC)c2)CCC1,5.37,5.74,< 5.00,6.06,< 5.00,5.53
COc1cc(NC2CCCC2)ccc1Nc1ncc(Cl)c(Nc2ccccc2NC(C)=O)n1,5.98,5.99,< 5.00,6.17,< 5.00,6.01
CCOC(=O)[C@@H]1CCCN(C(=O)Nc2ccc(Nc3ncc(Cl)c(Nc4ccccc4NC(C)=O)n3)c(OC)c2)C1,6.23,5.81,5.59,6.17,< 5.00,6.22
COc1cc(NC(=O)N2CCC(C(=O)O)CC2)ccc1Nc1ncc(Cl)c(Nc2ccccc2NC(C)=O)n1,5.97,6.01,< 5.00,6.41,5.44,5.73
COc1cc(NC(=O)NC2CC2)ccc1Nc1ncc(Cl)c(Nc2ccccc2NC(C)=O)n1,6.05,6.15,< 5.00,6.06,< 5.00,6.09
COc1cc(NC(=O)N[C@H]2CC[C@H](O)CC2)ccc1Nc1ncc(Cl)c(Nc2ccccc2NC(C)=O)n1,6.47,5.91,5.64,7.02,< 5.00,6.26
COc1cc(NC2=CC(=O)CCC2)ccc1Nc1ncc(Cl)c(Nc2ccccc2NC(C)=O)n1,5.99,5.95,5.28,6.64,< 5.00,5.79
